Test results from patent US8569229B2, “Compositions and methods which modulate G-protein signaling for the treatment of inflammatory disorders such as asthma and allergic conjunctivitis” (The Children's Hospital of Philadelphia, priority 2008, dated 2013).
Where “and” joins values, the source holds several entries; their conditions need not be identical. Equal values may be shown once. Entries after “also recorded” stand apart in the source; their conditions may differ.

Assays:
[1] = system: rabbit ASM tissues; experiment: Constrictor responsiveness to acetylcholine (ACh) in isolated rabbit ASM tissues, isometric tension in organ bath; conditions: for effect of pretreatment on PGE2-induced increase in constrictor responsiveness to ACh: PGE2 100 nM x 24 hr; for effect of pretreatment on salmeterol-induced increase in constrictor responsiveness to ACh: salmeterol 10 μM x 24 hr; for effect of the agent alone on constrictor responses to ACh: vehicle-exposed control tissues
From the text: (§1) Detection of PDE4D5 mRNA transcripts: Total RNA was extracted from the cultured ASM cells using the TRIzol method (Invitrogen), and cDNAs were isolated by RT-PCR using the SuperScript First Strand Synthesis System kit from Invitrogen, with the following oligonucleotide primer sets (Integrated DNA Technologies): for PDE4D5, 5′-[…]-3′ (forward; SEQ ID NO: 2) and 5′-[…]-3′ (reverse; SEQ ID NO: 3); and for β-actin, 5′-[…]-3′ (forward; SEQ ID NO: 4) and 5′-[…]-3′ (reverse; SEQ ID NO: 5). The reaction volume was 20 μl and cycling conditions used were 35 cycles of 30 sec denaturation at 95° C., followed by 30 sec annealing at 60° C. and elongation at 72° C. for 30 sec. Ex-Tag (Takara Biotechnology) was used as DNA polymerase. […] Following protein extraction and the addition of gel-loading buffer, the extracts were loaded on a 10% SDS-PAGE gel for immunoblotting after transfer to a PVDF membrane. The membranes were then incubated overnight with monoclonal mouse anti-human primary antibodies directed against phospho-CREB and -ATF1, phospho-ERK1/2, or α-actin, and levels were detected by ECL after a 1-hr incubation with a 1:2,000 dilution of HRP-conjugated rabbit anti-mouse secondary antibody, followed by exposure to autoradiography film. The protein band intensities were quantified by densitometry. siRNA-mediated knockdown of PKA: ASM cells were seeded into 6-well plates and, at ˜40% confluency, the medium was replaced with the reduced serum-containing medium, Opti-MEM (Invitrogen). The cells were then transfected twice during a 24-hr interval with two pools of three siRNA duplexes, each pool targeted against the human PKAα or PKAγ catalytic subunits (Santa Cruz Biotechnology; sc-36240 and sc-36236, respectively), or with a non-targeted control (scrambled) siRNA duplex, using Oligofectamine (Invitrogen) as the transfection agent. The pools of siRNAs were applied to each well at a final concentration of 100 nM for each siRNA preparation. […] Transfection of ASM cells with adeno-βARK-ct: Adenovirus (adeno)-βARK-ct, an adenovirus vector encoding the βARK1 carboxyl-terminal domain which blocks Gβγ signaling (25,26), and adeno-β-gal, an adenovirus vector expressing lacZ as a negative control, were constructed using the AdenoX adenovirus construction kit (BD-Clontech). Recombinant plaques were isolated and propagated in HEK293 cells (Invitrogen), with viral purification using the cesium chloride gradient method, and viral titer detected by plaque assay. The ASM cells were transfected with either of the adenoviral vectors at a multiplicity of infection (MOI) of 100, and experiments were conducted at 24 hr following adenoviral tranfections. Pharmacodynamic studies of constrictor and relaxation responsiveness in rabbit ASM tissues: Following initial sedation and subsequent general anesthesia with intramuscular injections of xylazine (10 mg/kg) and ketamine (50 mg/kg), respectively, rabbits were sacrificed with an intravenously administered overdose of sodium pentobarbital (100 mg/kg). As described previously (16), the tracheae were excised via open thoracotomy, the loose connective tissue and epithelium were scraped and removed, and the tracheae were divided into 8 ring segments, each of 6-8 mm in length. […] After these incubations, the tissues were placed in organ baths containing modified Krebs-Ringer solution aerated with 5% CO2 in oxygen (pH of 7.35-7.40), and attached to force transducers to continuously monitor isometric tension. […] The constrictor and relaxation dose-response curves were analyzed with respect to each tissue's maximal isometric contractile force (Tmax) to ACh and maximal relaxation response (Rmax) to isoproterenol from the initial level of active cholinergic contraction. Statistical analyses: Results are expressed as mean±SE values. Comparisons between groups were made using the Student's t-test (two-tailed) or ANOVA with Tukey's post-test analysis, where appropriate.

[2] = system: rabbit ASM tissues; experiment: Relaxation responsiveness to isoproterenol in isolated rabbit ASM tissues half-maximally contracted with ACh; conditions: for effect of pretreatment on PGE2-induced impaired relaxation to isoproterenol: PGE2 100 nM x 24 hr; for effect of pretreatment on salmeterol-induced impaired relaxation to isoproterenol: salmeterol 10 μM x 24 hr
From the text: as §1

[3] = system: human ASM cells; experiment: Assay of cAMP accumulation in cultured human ASM cells; type: cell-based
From the text: Animals: Adult New Zealand White rabbits were used in this study, which was approved by the Biosafety and Animal Research Committee of the Joseph Stokes Research Institute at Children's Hospital of Philadelphia. The animals had no signs of respiratory disease for several weeks before the study, and their care and use were in accordance with the “Guide for the Care and Use of Laboratory Animals” prepared by the Institute of Laboratory Animal Resources, National Research Council. Culture and treatment of ASM cells: The human ASM cells were grown in SmBm media supplemented with 10% FBS (BioWhittaker) and maintained throughout in a humidified incubator containing 5% CO2 in air at 37° C. The experimental protocols involved growing the cells to ˜95% confluence in the above medium. […] Assay of cAMP accumulation: In initial studies, intracellular cAMP levels were determined in near confluent ASM cell cultures at varying times following treatment of ASM cells with varying concentrations of isoproterenol (0.1 to 100 μM). […]
Thereafter, in the continued presence of these treatments, cells were exposed for 5 min to isoproterenol (10 μM) at 37° C., and intracellular cAMP concentrations were determined per manufacturer's protocols using a direct cAMP Enzyme Immunoassay Kit (R&D Systems, Minneapolis, Minn.). In both cases, the cAMP measurements were expressed in units of picomoles/milligram protein.

[4] = system: human ASM cells; experiment: Assay of cAMP PDE activity in ASM cell lysates; type: cell-based; conditions: for cAMP PDE (PDE4) activity relative to vehicle-treated control cells: cells exposed 24 hr to the agent; for PDE activity, fold above control: cells incubated 24 hr with the agent (PGE2 or forskolin 100 μM; salmeterol or isoproterenol 10 μM)
Method: Assay of cAMP PDE activity: Levels of cAMP PDE activity were assayed in ASM cell lysates using a colorimetric, non-radioactive enzymatic assay kit from Biomol, as per the manufacture's protocol. PDE activity was determined following exposure of ASM cells for 24 hr to either vehicle alone (control), PGE2 (100 μM), or forskolin (100 μM) in the absence and presence of pretreatment with rolipram (10 μM), cycloheximide (100 μM), actinomycin D (4 μM), or H89 (10 μM).
In each case, the measured levels of PDE activity were standardized to the protein content in the cell extracts.

[5] = system: PDE4D5 mRNA; experiment: Detection of PDE4D5 mRNA transcripts by RT-PCR in ASM cells; type: cell-based, human; conditions: for time of peak PDE4D5 mRNA induction / peak PDE4D5 mRNA expression, fold above unstimulated cells: salmeterol or isoproterenol 10 μM; for peak PDE4D5 mRNA expression, fold above unstimulated cells: densitometric analysis, 3 experiments
From the text: as §1

[6] = system: CREB/ATF1; experiment: Immunoblot analysis of CREB/ATF1 phosphorylation in ASM cells; type: cell-based, human; conditions: PGE2 100 nM
From the text: as §1

[7] = system: ERK1/2; experiment: Immunoblot analysis of ERK1/2 phosphorylation in ASM cells; type: cell-based, human; conditions: for time of peak ERK1/2 phosphorylation / ERK1/2 phosphorylation in cells treated with the agent: isoproterenol or salmeterol 10 μM; for ERK1/2 phosphorylation in cells treated with the agent: PGE2 or forskolin 100 nM
From the text: as §1

[8] = system: human ASM cells; experiment: Assay of cAMP PDE activity in ASM cell lysates; type: cell-based; conditions: for effect of pretreatment on PGE2- and forskolin-induced increases in PDE activity: PGE2 or forskolin x 24 hr (100 μM in text, 100 nM in legends); for effect of pretreatment on salmeterol- and isoproterenol-induced increase in PDE activity: salmeterol or isoproterenol 10 μM x 24 hr
[9] = tissues exposed 24 hr to the agent
[10] = forskolin 100 μM x 24 hr, data not shown

OCc1cc(C(O)CNCCCCCCOCCCCc2ccccc2)ccc1O (stereo not drawn) [salmeterol]
constrictor responsiveness to ACh relative to vehicle-treated controls [1, 9]: significantly increased constrictor responses | maximal relaxation (Rmax) response to isoproterenol ([2]; mean±SE, tissues exposed 24 hr to the agent (PGE2 100 nM; salmeterol 10 μM)): 33.39±5.1% | relaxation responsiveness to isoproterenol relative to vehicle-treated controls [2, 9]: impaired relaxation responses | isoproterenol-induced cAMP accumulation after 24 hr exposure to the agent ([3]; isoproterenol 1.0 μM, 5 min, PGE2 100 nM or salmeterol 10 μM x 24 hr, no rolipram): significantly reduced cAMP responses; also recorded: markedly attenuated | cAMP PDE (PDE4) activity relative to vehicle-treated control cells [4]: significantly increased | PDE activity, fold above control [4]: ~2 fold | time of peak PDE4D5 mRNA induction ([5]; PGE2 100 nM): 6 h | peak PDE4D5 mRNA expression, fold above unstimulated cells ([5]; PGE2 100 nM): 7.3 fold | phosphorylation of CREB and ATF1 in cells treated with the agent ([6]; isoproterenol 10 μM): Qualitatively similar temporal changes | time of peak ERK1/2 phosphorylation ([7]; PGE2 100 nM): 20 min | ERK1/2 phosphorylation in cells treated with the agent [7]: increased phosphorylation of ERK1/2; also recorded: enhanced ERK1/2 phosphorylation

COc1ccc(C2CNC(=O)C2)cc1OC1CCCC1 (stereo not drawn) [rolipram]
effect of pretreatment on PGE2-induced increase in constrictor responsiveness to ACh [1]: completely abrogated; also recorded: prevents | effect of pretreatment on forskolin-induced increase in constrictor responsiveness to ACh [1, 10]: completely abrogated | effect of pretreatment on salmeterol-induced increase in constrictor responsiveness to ACh [1]: completely abrogated; also recorded: prevents | effect of the agent alone on constrictor responses to ACh [1]: only modestly decreased constrictor responses; also recorded: did not exhibit any significant changes; also recorded: no significant effect | effect of pretreatment on PGE2-induced impaired relaxation to isoproterenol [2]: completely ablated; also recorded: prevents | effect of pretreatment on forskolin-induced impaired relaxation to isoproterenol [2, 10]: completely abrogated | effect of pretreatment on salmeterol-induced impaired relaxation to isoproterenol [2]: completely ablated; also recorded: prevents | isoproterenol-induced cAMP response in PGE2-exposed cells pretreated with the agent ([3]; PGE2 100 nM x 24 hr, rolipram 10 μM): preserved; also recorded: unaltered | isoproterenol-induced cAMP accumulation in cells pretreated with the agent ([3]; rolipram 10 μM, isoproterenol 1.0 μM, 5 min): increased isoproterenol-induced cAMP accumulation; also recorded: slightly increased | isoproterenol-induced cAMP response in salmeterol-exposed cells co-treated with the agent ([3]; salmeterol 10 μM x 24 hr, rolipram 10 μM): largely preserved; also recorded: unaltered | effect of pretreatment on PGE2- and forskolin-induced increases in PDE activity [8]: completely abrogated; also recorded: ablated | effect of pretreatment on salmeterol- and isoproterenol-induced increase in PDE activity [8]: completely abrogated; also recorded: ablated

O=S(=O)(NCCNC/C=C/c1ccc(Br)cc1)c1cccc2cnccc12 [H89]
effect of pretreatment on PGE2-induced increase in constrictor responsiveness to ACh [1]: abrogated | effect of pretreatment on salmeterol-induced increase in constrictor responsiveness to ACh [1]: completely abrogated; also recorded: prevents | effect of the agent alone on constrictor responses to ACh [1]: no significant effect; also recorded: did not exhibit any significant changes | effect of pretreatment on PGE2-induced impaired relaxation to isoproterenol [2]: abrogated | effect of pretreatment on salmeterol-induced impaired relaxation to isoproterenol [2]: completely ablated; also recorded: prevents | effect of the agent alone on relaxation responses to isoproterenol ([2]; vehicle-exposed control tissues): no significant effect; also recorded: did not exhibit any significant changes | effect of the agent alone on basal PDE activity ([4]; no cAMP-elevating agent): no significant change; also recorded: neither H89 nor U0126 alone had a significant effect | effect of pretreatment on PGE2-induced upregulated PDE4D5 mRNA expression ([5]; PGE2 100 nM, 6 hr): largely prevented; also recorded: ablated | effect of pretreatment on β2AR agonist (isoproterenol)-induced upregulated PDE4D5 mRNA expression ([5]; isoproterenol 10 μM, 6 hr): largely prevented; also recorded: ablated | effect on PGE2-induced phosphorylation of CREB/ATF1 ([6]; 30 min): abrogated; also recorded: ablated | effect on PGE2-induced phosphorylation of ERK1/2 ([7]; PGE2 100 nM, 30 min): abrogated; also recorded: ablated | effect of pretreatment on PGE2- and forskolin-induced increases in PDE activity [8]: abrogated; also recorded: ablated | effect of pretreatment on salmeterol- and isoproterenol-induced increase in PDE activity [8]: prevented; also recorded: ablated

CC(C)NCC(O)c1ccc(O)c(O)c1 (stereo not drawn) [isoproterenol]
cAMP PDE (PDE4) activity relative to vehicle-treated control cells [4]: significantly increased | PDE activity, fold above control [4]: ~2 fold | time of peak PDE4D5 mRNA induction ([5]; PGE2 100 nM): 6 h | peak PDE4D5 mRNA expression, fold above unstimulated cells ([5]; PGE2 100 nM): 5.7 fold | phosphorylation of CREB and ATF1 in cells treated with the agent ([6]; isoproterenol 10 μM): transiently increased phosphorylation | time of peak CREB/ATF1 phosphorylation ([6]; isoproterenol 10 μM): 30 min | time of peak ERK1/2 phosphorylation ([7]; PGE2 100 nM): 20 min | ERK1/2 phosphorylation in cells treated with the agent [7]: increased phosphorylation of ERK1/2; also recorded: enhanced ERK1/2 phosphorylation | increase in ERK1/2 phosphorylation, fold above control (vehicle-treated) cells ([7]; densitometric ratios, mean±SE, PGE2 30 min, isoproterenol 20 min): 2.30±0.18 fold and 2.3 fold
